ChEMBL document CHEMBL5532655, “Discovery of (R)-4-(8-methoxy-2-methyl-1-(1-phenylethy)-1H-imidazo[4,5-c]quinnolin-7-yl)-3,5-dimethylisoxazole as a potent and selective BET inhibitor for treatment of acute myeloid leukemia (AML) guided by FEP calculation” (Eur J Med Chem, 2024)
Calls of active or inactive are those of the source. The rule behind the calls is not given here.

Assays:
[1] = MRTinfinity in Sprague-Dawley rat at 1 mg/kg,iv administration measured upto 24 hrs by LC-MS/MS analysis; format: ADME, organism-based; settings: in vivo
[2] = AUC (0-t) in Sprague-Dawley rat at 1 mg/kg,iv administration measured upto 24 hrs by LC-MS/MS analysis; format: ADME, organism-based; settings: in vivo
[3] = Half life in Sprague-Dawley rat at 10 mg/kg,po administration measured upto 24 hrs by LC-MS/MS analysis; format: ADME, organism-based; settings: in vivo
[4] = Cmax in Sprague-Dawley rat at 10 mg/kg,po administration measured upto 24 hrs by LC-MS/MS analysis; format: ADME, organism-based; settings: in vivo
[5] = MRTinfinity in Sprague-Dawley rat at 10 mg/kg,po administration measured upto 24 hrs by LC-MS/MS analysis; format: ADME, organism-based; settings: in vivo
[6] = AUC (0-t) in Sprague-Dawley rat at 10 mg/kg,po administration measured upto 24 hrs by LC-MS/MS analysis; format: ADME, organism-based; settings: in vivo
[7] = Tmax in Sprague-Dawley rat at 10 mg/kg,po administration measured upto 24 hrs by LC-MS/MS analysis; format: ADME, organism-based; settings: in vivo
[8] = system: MV4-11; assay: Induction of apoptosis in human MV4-11 cells assessed as viable cells at 2.5 uM incubated for 24 hrs by annexin V-FITC/PI staining based flow cytometric analysis (reference value: 97%); format: functional; settings: Homo sapiens, MV4-11, read-out: Activity
[9] = system: MV4-11; assay: Induction of apoptosis in human MV4-11 cells assessed as early apoptotic cells at 2.5 uM incubated for 24 hrs by annexin V-FITC/PI staining based flow cytometric analysis (reference value: 0%); format: functional
[10] = system: MV4-11; assay: Induction of apoptosis in human MV4-11 cells assessed as late apoptotic cells at 2.5 uM incubated for 24 hrs by annexin V-FITC/PI staining based flow cytometric analysis (reference value: 0.04 %); format: functional
[11] = system: MV4-11; assay: Induction of apoptosis in human MV4-11 cells assessed as necrotic cells at 0.625 uM incubated for 24 hrs by annexin V-FITC/PI staining based flow cytometric analysis (reference value: 2.35 %); format: functional
[12] = system: MV4-11; assay: Induction of apoptosis in human MV4-11 cells assessed as necrotic cells at 10 uM incubated for 24 hrs by annexin V-FITC/PI staining based flow cytometric analysis (reference value: 2.35 %); format: functional
[13] = system: MV4-11; assay: Induction of cell cycle arrest in human MV4-11 cells assessed as accumulation of cells at G0/G1 phase at 0.3125 uM incubated for 24 hrs by propidium iodide staining flow cytometric analysis (reference value: 37.64 %); format: functional
[14] = system: MV4-11; assay: Induction of cell cycle arrest in human MV4-11 cells assessed as accumulation of cells at G0/G1 phase at 1.25 uM incubated for 24 hrs by propidium iodide staining flow cytometric analysis (reference value: 37.64 %); format: functional
[15] = system: MV4-11; assay: Induction of cell cycle arrest in human MV4-11 cells assessed as accumulation of cells at G0/G1 phase at 2.5 uM incubated for 24 hrs by propidium iodide staining flow cytometric analysis (reference value: 37.64 %); format: functional
[16] = system: MV4-11; assay: Induction of cell cycle arrest in human MV4-11 cells assessed as accumulation of cells at G2/M phase at 0.3125 uM incubated for 24 hrs by propidium iodide staining flow cytometric analysis (reference value: 18 %); format: functional
[17] = system: MV4-11; assay: Induction of cell cycle arrest in human MV4-11 cells assessed as accumulation of cells at G2/M phase at 1.25 uM incubated for 24 hrs by propidium iodide staining flow cytometric analysis (reference value: 18 %); format: functional
[18] = system: MV4-11; assay: Induction of cell cycle arrest in human MV4-11 cells assessed as accumulation of cells at G2/M phase at 2.5 uM incubated for 24 hrs by propidium iodide staining flow cytometric analysis (reference value: 18 %); format: functional
[19] = system: MV4-11; assay: Induction of cell cycle arrest in human MV4-11 cells assessed as accumulation of cells at G2/M phase at 5 uM incubated for 24 hrs by propidium iodide staining flow cytometric analysis (reference value: 18 %); format: functional
[20] = system: MV4-11; assay: Induction of cell cycle arrest in human MV4-11 cells assessed as accumulation of cells at S phase at 2.5 uM incubated for 24 hrs by propidium iodide staining flow cytometric analysis (reference value: 43.94 %); format: functional
[21] = system: MV4-11; assay: Induction of apoptosis in human MV4-11 cells assessed as downregulation of CDK6 expression at 0.3125 to 2.5 uM incubated for 48 hrs by Western blotting analysis; format: functional, cell-based; settings: dose 0.3125-2.5 µM
[22] = system: MV4-11; assay: Induction of apoptosis in human MV4-11 cells assessed as upregulation of PARP expression at 0.3125 to 2.5 uM incubated for 48 hrs by Western blotting analysis; format: functional, cell-based; settings: dose 0.3125-2.5 µM
[23] = system: MV4-11; assay: Induction of apoptosis in human MV4-11 cells assessed as downregulation of CDK6 expression at 500 nM hrs by Western blotting analysis; format: functional, cell-based; settings: TDE = time-dependent effect
[24] = system: MV4-11; assay: Induction of apoptosis in human MV4-11 cells assessed as upregulation of cleaved PARP expression at 500 nM hrs by Western blotting analysis; format: functional, cell-based; settings: TDE = time-dependent effect
[25] = system: MV4-11; assay: Antitumor activity against human MV4-11 cells xenografted in BALB/c mouse assessed as tumor growth inhibition at 50 mg/kg administration relative to control; format: functional; settings: read-out: TGI
[26] = molecular target: Bromodomain-containing protein 2 (Homo sapiens) (UniProt P25440); settings: time 30.0 min
Sequence of Bromodomain-containing protein 2 (Homo sapiens) (P25440 whole entry, looked up): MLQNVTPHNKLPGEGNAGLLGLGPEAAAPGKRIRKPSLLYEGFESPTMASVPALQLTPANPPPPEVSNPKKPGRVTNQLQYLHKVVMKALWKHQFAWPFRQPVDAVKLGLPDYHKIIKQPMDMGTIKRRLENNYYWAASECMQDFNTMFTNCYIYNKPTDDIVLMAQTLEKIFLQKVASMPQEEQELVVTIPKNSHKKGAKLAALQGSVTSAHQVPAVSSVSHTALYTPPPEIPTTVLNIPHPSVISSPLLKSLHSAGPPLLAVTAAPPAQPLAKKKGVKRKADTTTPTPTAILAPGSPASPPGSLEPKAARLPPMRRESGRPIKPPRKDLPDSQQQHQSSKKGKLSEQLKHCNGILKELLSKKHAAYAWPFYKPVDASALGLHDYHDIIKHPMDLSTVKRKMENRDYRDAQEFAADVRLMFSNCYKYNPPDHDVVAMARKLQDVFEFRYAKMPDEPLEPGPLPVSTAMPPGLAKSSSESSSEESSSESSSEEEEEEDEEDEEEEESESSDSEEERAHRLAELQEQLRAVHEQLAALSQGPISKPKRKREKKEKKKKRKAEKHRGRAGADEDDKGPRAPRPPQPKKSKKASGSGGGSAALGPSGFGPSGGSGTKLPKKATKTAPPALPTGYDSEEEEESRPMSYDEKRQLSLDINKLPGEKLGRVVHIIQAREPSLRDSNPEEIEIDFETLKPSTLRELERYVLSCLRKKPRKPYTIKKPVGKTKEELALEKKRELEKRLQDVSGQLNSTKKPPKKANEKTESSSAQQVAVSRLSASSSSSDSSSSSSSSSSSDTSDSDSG

Compound `COc1cc2c(cc1-c1c(C)noc1C)ncc1nc(C)n([C@H](C)c3ccccc3)c12` has an MRT inf [1] of 0.84 h, an AUC(0-t) at 24 h [2] of 1380 ng·h/mL and a half-life [3] of 2.65 h. The Cmax [4] was 1780 ng/mL, the MRT inf [5] was 5.86 h and the AUC(0-t) at 24 h [6] was 16000 ng·h/mL. The Tmax [7] was 1 h, the viability at 2.5 µM [8] was 81.7% and the Activity [9] was 8.72%. For the same compound, the Activity [10] was 9.68%, the Activity [11] was 6% and the Activity [12] was 8%. The Activity [13] was 48.98%, the Activity [14] was 71.52% and the Activity [15] was 72.14%. For the same compound, the Activity [16] was 6.33%, the Activity [17] was 5.16% and the Activity [18] was 7.33%. The Activity [19] was 3.63%, the Activity [20] was 20.35% and the Activity [21] was “Active”. The Activity [22] was “Active”, the Activity [23] was “Tde” and the Activity [24] was “Tde”. It also gave an inhibition in vivo at 50 mg/kg [25] of 70.4%.
With `COc1cc2c(cc1-c1c(C)n[nH]c1C)ncc1nc(C)n([C@H](C)c3ccccc3)c12` the ΔTm [26] was 5 °C.
